Test results as given in paper PMC10702058, “Phase I dose escalation study and pilot efficacy analysis of LXI-15029, a novel mTOR dual inhibitor, in Chinese subjects with advanced malignant solid tumors” (BMC Cancer, 2023).
“Also recorded” adds a separate entry of the source.

Assay: Phase I dose escalation: safety and tolerability (DLT, MTD, adverse events, NCI-CTCAE 4.03)

## CNC(=O)c1cccc(-c2ccc3c(N4C5CCC4COC5)nc(N4CCOC[C@@H]4C)nc3n2)c1 [LXI-15029]
80 mg BID (n = 4)
  ≥ 10% TRAE: Hypercholesterolemia: 0 n (%)
  ≥ 10% TRAE: Hypertriglyceridemia: 0 n (%)
  ≥ 10% TRAE: LDL increased: 0 n (%)
  ≥ 10% TRAE: Leukocytopenia: 2 (50.0) n (%)
  ≥ 10% TRAE: Neutropenia: 0 n (%)
  ≥ 10% TRAE: Sinus bradycardia: 1 (25.0) n (%)
110 mg BID (n = 3)
  Patients with any TEAE: 3 (100.0) n (%)
  Patients with any TEAE, maximum CTCAE Grade 1: 3 (100.0) n (%)
  Patients with any TEAE, maximum CTCAE Grade 2: 0 n (%)
  Patients with any TEAE, maximum CTCAE Grade 3: 0 n (%)
  ≥ 10% TRAE: ALT increased: 1 (33.3) n (%)
  ≥ 10% TRAE: AST increased: 2 (66.7) n (%)
  ≥ 10% TRAE: Decreased appetite: 0 n (%)
  ≥ 10% TRAE: Diarrhea: 0 n (%)
  ≥ 10% TRAE: ECG QT prolonged: 2 (66.7) n (%)
  ≥ 10% TRAE: Fatigue: 0 n (%)
  ≥ 10% TRAE: GGT increased: 0 n (%)
  ≥ 10% TRAE: Hypercholesterolemia: 0 n (%)
  ≥ 10% TRAE: Hypertriglyceridemia: 0 n (%)
  ≥ 10% TRAE: LDL increased: 0 n (%)
  ≥ 10% TRAE: Leukocytopenia: 1 (33.3) n (%)
  ≥ 10% TRAE: Neutropenia: 0 n (%)
  ≥ 10% TRAE: Sinus bradycardia: 0 n (%)
150 mg BID (n = 4)
  Patients with any TEAE: 4 (100.0) n (%)
  Patients with any TEAE, maximum CTCAE Grade 1: 2 (50.0) n (%)
  Patients with any TEAE, maximum CTCAE Grade 2: 1 (25.0) n (%)
  Patients with any TEAE, maximum CTCAE Grade 3: 1 (25.0) n (%)
  ≥ 10% TRAE: ALT increased: 2 (50.0) n (%)
  ≥ 10% TRAE: AST increased: 2 (50.0) n (%)
  ≥ 10% TRAE: Decreased appetite: 1 (25.0) n (%)
  ≥ 10% TRAE: Diarrhea: 0 n (%)
  ≥ 10% TRAE: ECG QT prolonged: 0 n (%)
  ≥ 10% TRAE: Fatigue: 0 n (%)
  ≥ 10% TRAE: GGT increased: 2 (50.0) n (%)
  ≥ 10% TRAE: Hypercholesterolemia: 0 n (%)
  ≥ 10% TRAE: Hypertriglyceridemia: 1 (25.0) n (%)
  ≥ 10% TRAE: LDL increased: 0 n (%)
  ≥ 10% TRAE: Leukocytopenia: 3 (75.0) n (%)
  ≥ 10% TRAE: Neutropenia: 3 (75.0) n (%)
  ≥ 10% TRAE: Sinus bradycardia: 1 (25.0) n (%)
150 mg BID group, one participant, within the DLT observation window
  dose-limiting toxicity (DLT): grade 3 increased alanine aminotransferase (ALT); also recorded: Only one DLT was observed
Total (n = 24)
  Patients with any TEAE, maximum CTCAE Grade 1: 15 (62.5) n (%)
  Patients with any TEAE, maximum CTCAE Grade 2: 6 (25.0) n (%)
  Patients with any TEAE, maximum CTCAE Grade 3: 1 (4.2) n (%)
  ≥ 10% TRAE: ALT increased: 5 (20.8) n (%)
  ≥ 10% TRAE: AST increased: 5 (20.8) n (%)
  ≥ 10% TRAE: Decreased appetite: 3 (12.5) n (%)
  ≥ 10% TRAE: Diarrhea: 4 (16.7) n (%)
  ≥ 10% TRAE: ECG QT prolonged: 5 (20.8) n (%)
  ≥ 10% TRAE: Fatigue: 4 (16.7) n (%)
  ≥ 10% TRAE: GGT increased: 4 (16.7) n (%)
  ≥ 10% TRAE: Hypercholesterolemia: 3 (12.5) n (%)
  ≥ 10% TRAE: Hypertriglyceridemia: 5 (20.8) n (%)
  ≥ 10% TRAE: LDL increased: 3 (12.5) n (%)
  ≥ 10% TRAE: Leukocytopenia: 10 (41.7) n (%)
  ≥ 10% TRAE: Neutropenia: 4 (16.7) n (%)
  ≥ 10% TRAE: Sinus bradycardia: 4 (16.7) n (%)
All doses
  TRAEs of CTCAE grade 1: 62.5%
  TRAEs of CTCAE grade 2: 25%
  other serious treatment-related AEs (besides the DLT): No other serious treatment-related AEs were reported
All doses except the 10-mg and 80-mg doses
  mean ALT change from baseline: increased slightly
All doses except the 10-mg, 60-mg, and 80-mg doses
  mean AST change from baseline: increased slightly
All doses, 24 patients
  treatment-related AE: hypertriglyceridemia: 20.8%
  treatment-related AE: increased alanine aminotransferase: 20.8%
  treatment-related AE: increased aspartate aminotransferase: 20.8%
  treatment-related AE: leukocytopenia: 41.7%
  treatment-related AE: prolonged electrocardiogram QT interval: 20.8%
Attributed to disease progression unrelated to treatment
  deaths within 28 days of the last dose: One
Descriptive results
  association of AE rates, laboratory parameters, vital signs, ECG, other safety data with dose levels: No apparent associations
Of 24 participants
  participants with TEAEs leading to LXI-15029 discontinuation: Three
  participants with a TRAE leading to LXI-15029 discontinuation: one
  participants with a serious TRAE: one
  participants with serious TEAEs: Five
  participants with treatment-emergent AEs (TEAEs): 24 participants
  participants with treatment-related AEs (TRAEs): 22 participants
  patients with TEAEs occurring within 30 days after LXI-15029 discontinuation: Eleven
  treatment discontinuation because of AEs: 2 (8.3%) n (%)
  treatment discontinuation because of DLT: 1 (4.2%) n (%)
Oral BID, 10 to 150 mg
  tolerability: well tolerated at all doses; also recorded: well tolerated at all dose levels; also recorded: well tolerable
Oral monotherapy, Chinese patients with advanced solid tumors
  maximum tolerated dose (MTD): 110 mg BID
